Legend:
NB2-11 cells = assay: NB2-11 rat lymphoma cell proliferation assay; settings: in vitro; based on determined protein content; unmodified hGH = 100% bioactivity; preliminary
Protocol: The biological activity of hGH and the conjugates described in Table 1 was assessed in vitro using an NB2-11 rat lymphoma cell proliferation assay. Briefly, NB2-11 cells derived from a rat lymphoma were incubated with hGH, which leads to binding of the hGH molecule to its receptor on the cell surface. Receptor binding induces the signal transduction cascade, which results in proliferation of the cells. Assay results were based on determined protein content, and a 100% bioactivity of unmodified hGH.

hypophysectomized rat = assay: in vivo bioassay, weight gain in hypophysectomized rat (USP monograph for Somatotropin); settings: for increase of weight (day 8): single high dose of 110 μg on day 1, day 8
Protocol: Conjugates 1M and 1D were further evaluated in a preliminary in vivo bioassay (hypophysectomized rat, USP monograph for Somatotropin®). Six groups of each of five animals received either hGH, 1M, 1D, or placebo in different dosing regimes. Weight gain as a pharmacodynamic output was measured on day 1, 3, 6, and 8.
The results of the experiment are summarized in FIG. 4 (weight gain following day 8) and FIG. 5 (weight gain over time course of study). […] Daily dosing of 5 μg of the hGH standard induced an overall weight gain of 4% on day 8, whereas the single high dose of 110 μg of 1M and ID produced an increase of weight of 7% and 9% respectively (FIG. 4).

Row | Substance | Activity, % (NB2-11 cells) [%] | increase of weight (day 8) (hypophysectomized rat) [%] | other results
1 | di(mPEG-2-ButyrALD-40k) hGH [Sample 4D] | 0.2 |  | 
2 | di(mPEG-2-NHS-40k) hGH [Sample 1D] | 0.4 | 9 | animal death in study group (hypophysectomized rat; 1D bolus group, single dose 110 μg, five animals per group): death of one animal
3 | hGH: Native, recombinant human growth hormone, unmodified |  |  | overall weight gain on day 8 (hypophysectomized rat; daily dosing of 5 μg (cumulative 35 μg), day 8): 4%; weight gain during the eight days (hypophysectomized rat; single high dose (110 μg, day 1)): no or moderate weight gain
4 | mono(mPEG-2-ButyrALD-40k) hGH [Sample 4M] | 2.5 |  | 
5 | mono(mPEG-2-NHS-40k) hGH [Sample 1M] |  | 7 | 

Source: patent US9399070B2, “Compositions comprising a polymeric reagent and a pharmacologically active agent” (Nektar Therapeutics, priority 2003, dated 2016)
